# Measured values from PMC3632407 (Chemical communications (Cambridge, England), 2013).
# Where two headings read alike, the source gives them in different places. Where a SMILES comes first, the peptide text is derived from it.
# Assays:
# Format in all cases: cell-based
# [1] = system: E.coli
# [2] = system: S. nterica; assay: Minimal inhibitory concentration for bacteriocidal activity; conditions: MIC; strains in Supp. Info
# [3] = system: MRSA
# [4] = system: P. aeruginosa
# [5] = system: K. pneumoniae
# [6] = system: E. faecium
# [7] = system: A. baumanii
SMILES,"Minimal inhibitory concentration for bacteriocidal activity, E.coli [1] [µM]","Minimal inhibitory concentration for bacteriocidal activity, S. nterica [2] [µM]","Minimal inhibitory concentration for bacteriocidal activity, MRSA [3] [µM]","Minimal inhibitory concentration for bacteriocidal activity, P. aeruginosa [4] [µM]","Minimal inhibitory concentration for bacteriocidal activity, K. pneumoniae [5] [µM]","Minimal inhibitory concentration for bacteriocidal activity, E. faecium [6] [µM]","Minimal inhibitory concentration for bacteriocidal activity, A. baumanii [7] [µM]","Minimal inhibitory concentration for bacteriocidal activity, E.coli ([1]; MIC, strains in Supp. Info) [µM]","Minimal inhibitory concentration for bacteriocidal activity, MRSA ([3]; MIC, strains in Supp. Info) [µM]","Minimal inhibitory concentration for bacteriocidal activity, P. aeruginosa ([4]; MIC, strains in Supp. Info) [µM]","Minimal inhibitory concentration for bacteriocidal activity, K. pneumoniae ([5]; MIC, strains in Supp. Info) [µM]","Minimal inhibitory concentration for bacteriocidal activity, E. faecium ([6]; MIC, strains in Supp. Info) [µM]","Minimal inhibitory concentration for bacteriocidal activity, A. baumanii ([7]; MIC, strains in Supp. Info) [µM]"
"N=C(N)NCCC[C@H](NC(=O)[C@H](CS)NC(=O)[C@H](Cc1ccc(O)cc1)NC(=O)[C@H](Cc1c[nH]c2ccccc12)NC(=O)[C@H](CCCNC(=N)N)NC(=O)[C@@H](N)Cc1c[nH]c2ccccc12)C(N)=O [Complex 1, WRWYCR-NH2] (H-WRWYCR-NH2)",17,8,66,33,66,8,132,–,–,–,–,–,–
NC[C@H]1O[C@H](O[C@H]2[C@H](O)[C@@H](O[C@H]3O[C@H](CO)[C@@H](O)[C@H](N)[C@H]3O)[C@H](N)C[C@@H]2N)[C@H](O)[C@@H](O)[C@@H]1O [kanamycin],–,1,–,–,–,–,–,8,264,33,66,>264,>264
